Results reported in patent US5463071A, “5-membered heterocyclic compounds, processes for preparing them and pharmaceutical compositions containing these compounds” (Dr. Karl Thomae GmbH, priority 1991, dated 1995).
Where a name gives a salt, the structure may show the parent alone.

Experiments:
[1] = system: collagen-induced platelet aggregation in platelet-rich plasma; assay: Antithrombotic activity: inhibition of collagen-induced thrombocyte (platelet) aggregation, Born and Cross method; assay type: cell-based, healthy volunteers (human); settings: Homo sapiens, 10 minutes preincubation at 37° C.
Procedure: 2. Antithrombotic activity Method The thrombocyte aggregation is measured using the Born and Cross method (J. Physiol. 170: 397 (1964)) in platelet-rich plasma taken from healthy volunteers. To inhibit coagulation the blood is mixed with 3.14% sodium citrate in a ratio by volume of 1:10. Collagen-induced aggregation The pattern of the decrease in optical density of the platelet suspension is photometrically measured and recorded after the addition of the aggregation-triggering substance. The rate of aggregation is concluded from the angle of inclination of the density curve. The point on the curve where there is maximum light transmittance is used to calculate the optical density. The amount of collagen used is as small as possible but sufficient to produce an irreversible reaction curve. Standard commercial collagen produced by Hormonchemie of Munich is used. Before the addition of the collagen the plasma is incubated for 10 minutes with the substance at 37° C. From the measurements obtained an EC50 is determined graphically, indicating a 50% change in the optical density in terms of the inhibition of aggregation.

human thrombocytes = assay: Fibrinogen binding to human thrombocytes (125I fibrinogen, gel-filtered platelets); settings: ADP, 20 minutes at ambient temperature, read-out: Fibrinogen-binding test IC50
Procedure: 1. Fibrinogen binding to human thrombocytes The blood obtained by puncturing an antecubital vein is anticoagulated with trisodium citrate (final concentration: 13 mM) and centrifuged for 10 minutes at 170×g. The supernatant platelet-rich plasma is poured onto a Sepharose 2B column (Pharmacia) and eluted with a solution of 90 mM common salt, 14 mM trisodium citrate, 5 mM glucose and 50 mM Tris(hydroxymethyl)aminomethane, adjusted to pH 7.4. The gel-filtered platelets (GFP) appearing before the plasma proteins are used for the binding experiments. 50 μl of a 60 mM calcium chloride solution, 50 μl of a 0.6 mM adenosine diphosphate solution, 100 μl of substance solution or solvent and 50 μl of fibrinogen solution (containing 3 μg of ^125 I fibrinogen) are added to 750 μl of GFP and incubated for 20 minutes at ambient temperature. The non-specific binding is determined in the presence of 3 mg/ml of cold fibrinogen. 900 μof the incubated material are carefully pipetted onto 250 μof silicon oil (AP 38: AR 20, 1:2 v/v, Wacker Chemie) in Eppendorf tubes and centrifuged for 2 minutes at 10,000×g. The aqueous supernatant and part of the oil are drawn off, the tips of the tubes are cut off together with the platelet pellet and the quantity of bound fibrinogen is determined in a gamma counter. The concentration of substance which brings about a 50% inhibition in fibrinogen binding is determined from a series of concentrations and is given as the IC50 value.

[2] = Tolerance after intravenous administration to mice; assay type: in vivo; settings: 30 mg/kg intravenous, three mice each

Compound `N=C(N)c1ccc(-c2ccc(-n3cnc(CC(O)C(=O)O)c3)nn2)cc1` (stereo not drawn) [1(1), 1-[-6-(4-amidinophenyl)-3-pyridazinyl]-4-(2-carboxy-2-hydroxy-ethyl)-imidazole] has an EC50 [1] of 90 nM and an IC50 (human thrombocytes) of 38 nM.
In the case of `Cl.N=C(N)c1ccc(-c2ccc(-n3cnc(CC(N)C(=O)O)c3)nn2)cc1` (stereo not drawn) [1(2), 1-[6-(4-amidino-phenyl)-3-pyridazinyl]-4-(2-amino-2-carboxy-ethyl)-imidazole-hydrochloride], the EC50 [1] is reported as 90 nM, the “deaths after intravenous administration” value [2] is reported as “no animals died” and the IC50 (human thrombocytes) is reported as 18 nM.
With `N=C(N)c1ccc(-c2nnn(-c3ccc(CCC(=O)O)cc3)n2)cc1` [1(3), 5-(4-amidino-phenyl)-2-[4-(2-carboxy-ethyl)-phenyl]-tetrazole] the EC50 [1] was 11000 nM and the IC50 (human thrombocytes) was 220 nM.
Work on `N=C(N)c1ccc(-c2ccc(-c3nnn(CCC(=O)O)n3)cc2)cc1` [1(4), 5-(4-amidino-4'-biphenylyl)-2-(2-carboxy-ethyl)-tetrazole] yielded an EC50 [1] of 290 nM and an IC50 (human thrombocytes) of 44 nM.
Compound `Cn1cc(-c2ccc(C(=N)N)cc2)nc1-c1ccc(CCC(=O)O)cc1` [1(6), 4-(4-amidino-phenyl)-2-[4-(2-carboxy-ethyl)-phenyl]-1-methyl-imidazole] has an EC50 [1] of 90 nM and an IC50 (human thrombocytes) of 25 nM.
For `N=C(N)c1ccc(-c2c[nH]c(-c3ccc(CCC(=O)O)cc3)n2)cc1` [1(7), 4-(4-amidino-phenyl)-2-[4-(2-carboxy-ethyl)-phenyl]-imidazole], the EC50 [1] was 580 nM and the IC50 (human thrombocytes) was 210 nM.
Work on `N=C(N)c1ccc(-c2n[nH]c(-c3ccc(CCC(=O)O)cc3)n2)cc1` [1(8), 3-(4-amidino-phenyl)-5-[4-(2-carboxy-ethyl)-phenyl]-1,2,4-triazole] yielded an EC50 [1] of 4100 nM and an IC50 (human thrombocytes) of 460 nM.
`N=C(N)c1ccc(-c2nnc(-c3ccc(CCC(=O)O)cc3)o2)cc1` [1(9), 2-(4-amidino-phenyl)-5-[4-(2-carboxy-ethyl)-phenyl]-1,3,4-oxadiazole] gave an EC50 [1] of 8500 nM and an IC50 (human thrombocytes) of 4200 nM.
`N=C(N)c1ccc(-c2nnc(-c3ccc(CCC(=O)O)cc3)s2)cc1` [1(10), 2-(4-amidino-phenyl)-5-[4-(2-carboxy-ethyl)-phenyl]-1,3,4-thiadiazole] gave an EC50 [1] of 9500 nM and an IC50 (human thrombocytes) of 2000 nM.
In the case of `N=C(N)c1ccc(-c2ccc(-c3nnc(CCC(=O)O)s3)cc2)cc1` [1(20), 2-(4-amidino-4'-biphenylyl)-5-(2-carboxy-ethyl)-1,3,4-thiadiazole], the EC50 [1] is reported as 290 nM and the IC50 (human thrombocytes) is reported as 65 nM.
With `N=C(N)c1ccc(-c2ccc(-n3cnc(CC(C(=O)O)N(Cc4ccccc4)Cc4ccccc4)c3)nn2)cc1` (stereo not drawn) [1(35), 1-[6-(4-amidino-phenyl)-3-pyridazinyl]-4-(2-carboxy-2-dibenzylamino-ethyl)-imidazole] the EC50 [1] was 6900 nM and the IC50 (human thrombocytes) was 2400 nM.
`N=C(N)c1ccc(-c2ccc(-n3cc(CCC(=O)O)c4ccccc43)nn2)cc1` [1(37), 1-[6-(4-amidino-phenyl)-3-pyridazinyl]-3-(2-carboxy-ethyl)-indole] gave an EC50 [1] of 2400 nM and an IC50 (human thrombocytes) of 150 nM.
For `N=C(N)c1ccc(-c2ccc(-c3n[nH]c(SCC(=O)O)n3)cc2)cc1` [1(39), 3-(4-amidino-4'-biphenylyl)-5-carboxymethylthio-1,2,4-triazole], the EC50 [1] was 3700 nM and the IC50 (human thrombocytes) was 39 nM.
In the case of `COC(=O)c1cc(CCC(=O)O)oc1-c1ccc(-c2ccc(C(=N)N)cc2)cc1` [1(127), 2-(4-amidino-4'-biphenyl)-5-(2-carboxy-ethyl)-3-methoxycarbonyl-furan], the EC50 [1] is reported as 14000 nM and the IC50 (human thrombocytes) is reported as 2500 nM.
`N=C(N)c1ccc(-c2ccc(-c3oc(CCC(=O)O)cc3C(=O)O)cc2)cc1` [1(128), 2-(4-amidino-4'-biphenyl)-3-carboxy-5-(2-carboxy-ethyl)-furan] showed an EC50 [1] of 9000 nM and an IC50 (human thrombocytes) of 3500 nM.
`NCc1ccc(-c2ccc(-n3cnc(CC(N)C(=O)O)c3)nn2)cc1` (stereo not drawn) [1(134), 4-(2-amino-2-carboxy-ethyl)-1-[6-(4-aminomethyl-phenyl)-3-pyridazinyl]-imidazole-dihydrochloride] gave an EC50 [1] of 510 nM and an IC50 (human thrombocytes) of 460 nM.
With `COC(=O)C(O)Cc1cn(-c2ccc(-c3ccc(C(=N)N)cc3)nn2)cn1` (stereo not drawn) [2(1), 1-[6-(4-amidino-phenyl)-3-pyridazinyl]-4-(2-hydroxy-2-methoxycarbonyl-ethyl)-imidazole] the EC50 [1] was 180 nM.
Work on `COC(=O)C(N)Cc1cn(-c2ccc(-c3ccc(C(=N)N)cc3)nn2)cn1` (stereo not drawn) [2(2), 1-[6-(4-amidino-phenyl)-3-pyridazinyl]-4-(2-amino-2-methoxycarbonyl-ethyl)-imidazole-tris-trifluoroacetate] yielded an EC50 [1] of 350 nM and an IC50 (human thrombocytes) of 340 nM.
With `COC(=O)CCc1ccc(-n2nnc(-c3ccc(C(=N)N)cc3)n2)cc1` [2(3), 5-(4-amidino-phenyl)-2-[4-(2-methoxycarbonyl-ethyl)-phenyl]-tetrazole-hydrochloride] the EC50 [1] was 1600 nM and the IC50 (human thrombocytes) was 140 nM.
For `COC(=O)CCn1nnc(-c2ccc(-c3ccc(C(=N)N)cc3)cc2)n1` [2(4), 5-(4-amidino-4'-biphenylyl)-2-(2-methoxycarbonyl-ethyl)-tetrazole-hydrochloride], the EC50 [1] was 370 nM and the IC50 (human thrombocytes) was 490 nM.
`COC(=O)CCc1ccc(-c2nc(-c3ccc(C(=N)N)cc3)cs2)cc1` [2(5), 4-(4-amidino-phenyl)-2-[4-(2-methoxycarbonyl-ethyl)-phenyl]-thiazole-hydrochloride] gave an EC50 [1] of 7500 nM and an IC50 (human thrombocytes) of 3100 nM.
Compound `COC(=O)CCc1ccc(-c2nc(-c3ccc(C(=N)N)cc3)cn2C)cc1` [2(6), 4-(4-amidino-phenyl)-2-[4-(2-methoxycarbonyl-ethyl)-phenyl]-1-methyl-imidazole-hydrochloride] has an EC50 [1] of 210 nM and an IC50 (human thrombocytes) of 4300 nM.
`COC(=O)CCc1ccc(-c2nc(-c3ccc(C(=N)N)cc3)c[nH]2)cc1` [2(7), 4-(4-amidino-phenyl)-2-[4-(2-methoxycarbonyl-ethyl)-phenyl]-imidazole-hydrochloride] showed an EC50 [1] of 800 nM and an IC50 (human thrombocytes) of 17000 nM.
Work on `COC(=O)CCc1ccc(-c2nc(-c3ccc(C(=N)N)cc3)n[nH]2)cc1` [2(8), 3-(4-amidino-phenyl)-5-[4-(2-methoxycarbonyl-ethyl)-phenyl]-1,2,4-triazole] yielded an EC50 [1] of 6400 nM and an IC50 (human thrombocytes) of 44000 nM.
In the case of `COC(=O)CCc1ccc(-c2nnc(-c3ccc(C(=N)N)cc3)s2)cc1` [2(10), 2-(4-amidino-phenyl)-5-[4-(2-methoxycarbonyl-ethyl)-phenyl]-1,3,4-thiadiazole], the EC50 [1] is reported as 220 nM.
Work on `COC(=O)CCc1nnc(-c2ccc(-c3ccc(C(=N)N)cc3)cc2)s1` [2(20), 2-(4-amidino-4'-biphenylyl)-5-(2-methoxycarbonyl-ethyl)-1,3,4-thiadiazole] yielded an EC50 [1] of 280 nM and an IC50 (human thrombocytes) of 4900 nM.
With `COC(=O)CCc1cn(-c2ccc(-c3ccc(C(=N)N)cc3)nn2)c2ccccc12` [2(37), 1-[6-(4-amidino-phenyl)-3-pyridazinyl]-3-(2-methoxycarbonyl-ethyl)-indole] the EC50 [1] was 6100 nM and the IC50 (human thrombocytes) was 6200 nM.
In the case of `COC(=O)CSc1nc(-c2ccc(-c3ccc(C(=N)N)cc3)cc2)n[nH]1` [2(39), 3-(4-amidino-4'-biphenylyl)-5-methoxycarbonyl-methylthio-1,2,4-triazole], the EC50 [1] is reported as 5400 nM.
For `COC(=O)CCc1cc(C(=O)OC)c(-c2ccc(-c3ccc(C(=N)N)cc3)cc2)o1` [2(126), 2-(4-amidino-4'-biphenylyl)-3-methoxycarbonyl-5-(2-methoxycarbonyl-ethyl)-furan-hydrochloride], the EC50 [1] was 22000 nM and the IC50 (human thrombocytes) was 1400 nM.
`COC(=O)CCc1ccc(-c2nc(-c3ccc(C(=N)NC(=O)OC)cc3)cn2C)cc1` [4(1), 4-(4-methoxycarbonylamidino-phenyl)-2-[4-(2-methoxycarbonyl-ethyl)-phenyl]-1-methyl-imidazole] showed an IC50 (human thrombocytes) of 1500 nM.
For `COC(=O)CCc1ccc(-c2nc(-c3ccc(C(=N)NC(=O)OC)cc3)c[nH]2)cc1` [4(2), 4-(4-methoxycarbonylamidino-phenyl)-2-[4-(2-methoxycarbonyl-ethyl)-phenyl]-imidazole], the IC50 (human thrombocytes) was 1800 nM.
In the case of `N=C(N)c1ccc(-c2ccc(-n3cnc(CCC(=O)O)c3)nn2)cc1` [Example 1], the EC50 [1] is reported as 130 nM, the “deaths after intravenous administration” value [2] is reported as “no animals died” and the IC50 (human thrombocytes) is reported as 73 nM.
With `COC(=O)CCc1cn(-c2ccc(-c3ccc(C(=N)N)cc3)nn2)cn1` [Example 2, 1-[6-(4-Amidino-phenyl)-3-pyridazinyl]-4-(2-methoxy-carbonyl-ethyl)-imidazole] the EC50 [1] was 2200 nM and the IC50 (human thrombocytes) was 510 nM.
